Measurements from article PMC10653080, “Intermolecular Interactions, Solute Descriptors, and Partition Properties of Neutral Per- and Polyfluoroalkyl Substances (PFAS)” (Environmental Science & Technology, 2023).
Read-outs that look alike come from different tables or passages of the source.

Assay: PP-LFER solute descriptor determination from GC retention and partition coefficient data
Type: physicochemical
Conditions: for Solute descriptor S (dipolarity/polarizability parameter): final adjusted value, shared within a PFAS group
Text: The GC columns used were, from low to high polarity, HP-5ms Ultra Inert (poly[5% phenyl/95% methyl]siloxane equivalent; Agilent Technologies, Santa Clara, CA), DB-200 (poly[35% trifluoropropyl/65% methyl]siloxane; Agilent Technologies), DB-225ms (poly[50% cyanopropylphenyl/50% methyl]siloxane equivalent; Agilent Technologies), and SolGel-WAX (polyethylene glycol; Trajan, Ringwood, Australia). Column dimensions were all 30 m × 0.25 mm i.d. with a coating thickness of 0.25 μm.
The method for GC retention time measurements follows that of a previous study.[18] Briefly, a 7890A/5975C GC/MS instrument (Agilent Technologies) equipped with an MPS2 autosampler and CIS4 injector (Gerstel, Mülheim an der Ruhr, Germany) was used for all measurements. For each column, isothermal retention times were measured at four temperatures in the range of 30–120 °C to cover all target compounds. The temperature at the injector and transfer line was fixed at 120 °C. The carrier gas was He at a flow rate of 1.2 mL/min. Compounds were introduced into the GC by injecting either headspace (100–250 μL) above the pure compound or solution in acetone (1 μL). Split injections were performed with a split ratio of 20–250. Column dead time (t0) was determined by injecting air and measuring Ar (m/z 40). From the measured retention time (t), the retention factor (k) was calculated as k = (t–t0)/t0. Measurements with t < t0 + 0.1 min were considered too short and discarded. For each column and temperature, k values were obtained for 29–52 PFAS and 29–48 reference compounds.
The standard procedure for solute descriptor determination was as follows. First, the system parameters in eq 1 were calibrated for each column (or partition system) and temperature by MLR using log k (or log K) data and solute descriptors for reference compounds. Dimethylformamide, 1-pentylamine, dimethylsulfoxide, and dodecamethylcyclohexasiloxane (D6) were removed from the log k data sets, because they frequently appeared as outliers (>3 SD) of the PP-LFER model fit. Reference data sets for hexadecane/water partition coefficients (KHxd/w),[21]Kow,[22] and octanol/air partition coefficients (Koa)[23] were taken from the cited references and amended with data for organosilicon compounds.[24],[25] Similar to PFAS, organosilicon compounds have weak van der Waals interaction properties[9] and it may be beneficial to include them in reference data sets. The solute descriptors for PFAS were then back-calculated by using the calibrated PP-LFER equations. Of the five descriptors, V can be calculated from the molecular structure[26] (note: the fragment value for F from Goss et al.[11] was used), and L was available for the PFAS studied.[18] Thus, the left side of eq 2 was known, and MLR was performed to obtain S, A, and B on the right side. [drawing 2] 2 To determine the three descriptors, a minimum of three k and K data are required for a given PFAS compound. The data used here were: k measured for 60 PFAS in this study, KHxd/w for 21 PFAS,[5]Kow for 12 PFAS (see the Results and Discussion section), and Koa for 3 PFAS.[11]
Key to the accurate determination of the polar interaction descriptors is the availability of K data for partition systems with water as a partition phase because water is a strong H-bond donor and acceptor phase and thus the corresponding K values are sensitive to the H-bonding properties of the solute.[27] In particular, at least one solvent/water or air/water partition coefficient is required to determine B because there is no commonly used GC phase that is a significant H-bond donor. In the data set, KHxd/w is sensitive to both A and B and Kow is sensitive to B. However, KHxd/w and Kow data are not available for all PFAS. To increase the number of PFAS for which descriptors can be determined, the following assumptions were made. […]

[1] = 25 °C, updated in the iterative calculation
[2] = difference of descriptor values

SMILES	Solute descriptor L (logarithmic hexadecane/air partition coefficient, KHxd/air) [1]	A value higher than perfluorinated counterpart, perfluorooctane [2]	L value higher than perfluorinated counterpart, perfluorooctane [2]	Solute descriptor S (dipolarity/polarizability parameter)	Solute descriptor L (logarithmic hexadecane/air partition coefficient, KHxd/air)
FC(F)C(F)(F)C(F)(F)C(F)(F)C(F)(F)C(F)(F)C(F)(F)C(F)F [1,8-DHPFO, 1H,8H-Perfluorooctane]	2.130	0.24	0.78	0.38	–
C=CC(F)(F)C(F)(F)C(F)(F)C(F)(F)C(F)(F)C(F)(F)C(F)(F)C(F)(F)C=C [1,8-DVPFO, 1,8-Divinylperfluorooctane]	3.927	–	–	0.44	–
OCC(F)(F)C(F)(F)C(F)(F)F [3:1 FTOH, 1H,1H-Perfluorobutan-1-ol]	1.542	–	–	0.30	–
FC(F)(F)C(F)(F)C(F)(F)C(F)(F)CCI [4:2 FTI, 1H,1H,2H,2H-Perfluorohexyl iodide]	3.325	–	–	0.32	–
C=C(C)C(=O)OCCC(F)(F)C(F)(F)C(F)(F)C(F)(F)F [4:2 FTMAC, 1H,1H,2H,2H-Perfluorohexyl methacrylate]	3.990	–	–	0.53	–
C=CC(F)(F)C(F)(F)C(F)(F)C(F)(F)F [4:2 FTO, 1H,1H,2H-Perfluoro-1-hexene]	1.451	–	–	0.11	–
C=CC(=O)OCCC(F)(F)C(F)(F)C(F)(F)C(F)(F)C(F)(F)C(F)(F)F [6:2 FTAC, 1H,1H,2H,2H-Perfluorooctyl acrylate]	4.098	–	–	0.54	–
OCc1ccc(CCC(F)(F)C(F)(F)C(F)(F)C(F)(F)C(F)(F)C(F)(F)F)cc1 [6:2 FTBnOH, 4-(1H,1H,2H,2H-Perfluorooctyl)benzyl alcohol]	6.656	–	–	0.75	–
FC(F)(F)C(F)(F)C(F)(F)C(F)(F)C(F)(F)C(F)(F)CCI [6:2 FTI, 1H,1H,2H,2H-Perfluorooctyl iodide]	3.892	–	–	0.32	–
C=C(C)C(=O)OCCC(F)(F)C(F)(F)C(F)(F)C(F)(F)C(F)(F)C(F)(F)F [6:2 FTMAC, 1H,1H,2H,2H-Perfluorooctyl methacrylate]	4.553	–	–	0.53	–
C=CC(F)(F)C(F)(F)C(F)(F)C(F)(F)C(F)(F)C(F)(F)F [6:2 FTO, 1H,1H,2H-Perfluoro-1-octene]	2.022	–	–	0.11	–
C=CC(=O)OCCC(F)(F)C(F)(F)C(F)(F)C(F)(F)C(F)(F)C(F)(F)C(F)(F)C(F)(F)F [8:2 FTAC, 1H,1H,2H,2H-Perfluorodecyl acrylate]	4.661	–	–	0.54	–
CC(=O)OCCC(F)(F)C(F)(F)C(F)(F)C(F)(F)C(F)(F)C(F)(F)C(F)(F)C(F)(F)F [8:2 FTAce, 1H,1H,2H,2H-Perfluorodecyl acetate]	–	–	–	0.54	4.234
FC(F)(F)C(F)(F)C(F)(F)C(F)(F)C(F)(F)C(F)(F)C(F)(F)C(F)(F)CCI [8:2 FTI, 1H,1H,2H,2H-Perfluorodecyl iodide]	4.455	–	–	0.32	–
C=C(C)C(=O)OCCC(F)(F)C(F)(F)C(F)(F)C(F)(F)C(F)(F)C(F)(F)C(F)(F)C(F)(F)F [8:2 FTMAC, 1H,1H,2H,2H-Perfluorodecyl methacrylate]	–	–	–	0.53	5.115
C=CC(F)(F)C(F)(F)C(F)(F)C(F)(F)C(F)(F)C(F)(F)C(F)(F)C(F)(F)F [8:2 FTO, 1H,1H,2H-Perfluoro-1-decene]	2.504	–	–	0.11	–
C=CC(=O)OCCC(F)(F)C(F)(F)C(F)(F)C(F)(F)C(F)(F)C(F)(F)C(F)(F)C(F)(F)C(F)(F)C(F)(F)F [10:2 FTAC, 1H,1H,2H,2H-Perfluorododecyl acrylate]	–	–	–	0.54	5.221
FC(F)(F)C(F)(F)C(F)(F)C(F)(F)C(F)(F)C(F)(F)C(F)(F)C(F)(F)C(F)(F)C(F)(F)CCI [10:2 FTI, 1H,1H,2H,2H-Perfluorododecyl iodide]	–	–	–	0.32	5.020
C=C(C)C(=O)OCCC(F)(F)C(F)(F)C(F)(F)C(F)(F)C(F)(F)C(F)(F)C(F)(F)C(F)(F)C(F)(F)C(F)(F)F [10:2 FTMAC, 1H,1H,2H,2H-Perfluorododecyl methacrylate]	–	–	–	0.53	5.671
C=CC(F)(F)C(F)(F)C(F)(F)C(F)(F)C(F)(F)C(F)(F)C(F)(F)C(F)(F)C(F)(F)C(F)(F)F [10:2 FTO, 1H,1H,2H-Perfluoro-1-dodecene]	–	–	–	0.11	3.031
OCCC(F)(F)C(F)(F)C(F)(F)C(F)(F)C(F)(F)C(F)(F)C(F)(F)C(F)(F)C(F)(F)C(F)(F)F [10:2 FTOH, 1H,1H,2H,2H-Perfluorododecan-1-ol]	–	–	–	0.35	4.117
OCCC(F)(F)C(F)(F)C(F)(F)C(F)(F)C(F)(F)C(F)(F)C(F)(F)C(F)(F)C(F)(F)C(F)(F)C(F)(F)C(F)(F)F [12:2 FTOH, 1H,1H,2H,2H-Perfluorotetradecan-1-ol]	–	–	–	0.35	4.682
C=CCOCC(F)(F)C(F)(F)C(F)(F)C(F)(F)C(F)(F)C(F)(F)C(F)(F)F [AFOE, Allyl 1H,1H-perfluorooctyl ether]	3.584	–	–	0.30	–
C=CCOC(F)(C(F)(F)F)C(F)(F)F [APFIPE, Allyl perfluoroisopropyl ether]	1.717	–	–	0.15	–
CCNS(=O)(=O)C(F)(F)C(F)(F)C(F)(F)C(F)(F)C(F)(F)C(F)(F)F [EtFHxSA, N-Ethylperfluorohexanesulfonamide]	4.400	–	–	0.88	–
CCN(CCO)S(=O)(=O)C(F)(F)C(F)(F)C(F)(F)C(F)(F)C(F)(F)C(F)(F)F [EtFHxSE, N-Ethylperfluorohexanesulfonamidoethanol]	5.685	–	–	1.00	–
